Assay results taken from patent publication US12024510B2, “Pyrazolopyridine-diamides, their use as insecticide and processes for preparing the same” (PI INDUSTRIES LTD., priority 2017, dated 2024).

Experiments:
Format in all cases: in vivo
[1] = test system: Helicoverpa armigera; experiment: Helicoverpa armigera diet incorporation method; settings: third instar larvae, dead and moribund combined, 96 h after release
Summary of the method: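 Third-instar larvae, starved, were placed singly on diet pieces containing test dispersion (bead-milled in surfactant, particles under 2 μm, 500 ppm stock then diluted). Trays kept at 25° C. and 70% RH; mortality counted at 96 h, moribund larvae counted with dead.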

[2] = test system: Spodoptera litura; experiment: Spodoptera litura diet incorporation method; settings: third instar larvae, dead and moribund combined, 96 h after release
Procedure: Test Solutions were Prepared According to the Procedure Described Herein Below (500 PPM):
• 1. Eppendorf Vortex mixer (ThermoMixer C) and 1.5 mL Eppendorf tubes • 2. Zirconia (Zirconium-Yttrium) beads having diameter of 0.8 to 1.0 mm • 3. Microscope • 4. Beaker 100 mL • 5. Micro-pipette Reagents: • 1. Surfactant Solution • 2. De-mineralized (DM) Water • 1. Weigh 10 mg of the compound of the present invention to be tested in an Eppendorf Tube. • 2. Add 200 mg of the Surfactant Solution into the tube. • 3. Add 600 mg of Zirconia beads into the above mixture. • 4. Fix the tube in Eppendorf Vortex mixer and start vortexing at 2000 rpm. • 5. Mix on Vortex mixer for 30 minutes. After 30 minutes, observe the sample over a microscope at 400× resolution. • 6. If the Maximum particle size is more than 5 μm or average particle size is more than 2 μm or the particle size distribution is uneven, continue vortexing for another 30 minutes and again check the particle size using the microscope. Continue till the average particle size is below 2 microns. • 7. When the required particle size is achieved, add 1.0 mL DM water into the tube, close the cap, shake the tube thoroughly and transfer the contents, along with the beads, into a beaker. • 8. To rinse the tube, add another 1.0 mL of DM water into the tube, close the cap, shake well and transfer this into the same beaker. • 9. Repeat Step no. 8 one more time so that the tube is rinsed well and the compound of the present invention to be tested is transferred to the beaker. • 10. Add 16.8 mL of DM water into the beaker and stir well. • 11. The homogeneous dispersion can then be decanted into a glass vial, immediately, to separate the Zirconia beads. • 12. Immediately use this sample for biological testing. • 13. Further dilutions can be prepared by taking appropriate quantity of the aliquot of Step 10, immediately after stirring, and diluting as per requirement. The sample solution must be well mixed just before biological testing.
Diet incorporation method was used, in which semi-synthetic diet was incorporated into the test solution when the temperature is approximately 50° C. in the bioassay containers and stirred thoroughly for properly mixing and then was allowed to cool for 30 min. The solidified diet was cut into equal pieces, and then each piece was transferred in one cell in Bio-assay trays. A single third instar starved larva was released into each of these cells of bioassay trays and the tray was covered with the lid. The bio-assay trays were kept under laboratory conditions at a temperature of 25° C. and Relative Humidity of 70%. Observations on dead, moribund and live larvae were recorded at 96 h after the release of larvae. Percent mortality was calculated by combining dead and moribund larvae. The following compound numbers

[3] = test system: Plutella xylostella; experiment: whole plant or invertebrate; settings: foliar, cabbage leaf dip, second instar larvae, dead and moribund combined, 72 h after release
Summary of the method: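 Leaf-dip bioassay: second-instar larvae, singly, fed on cabbage leaves dipped 10 s in test dispersion (bead-milled, diluted with 0.01% Triton-X to test concentration) and dried 20 min. Held at 25 °C, 70% RH; % mortality counts dead and moribund at 72 h.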

Structure (SMILES) | mortality at 300 ppm [1] | mortality at 300 ppm [2] | mortality at 300 ppm [3]
CNC(=O)c1c(NC(=O)c2cc(Br)nn2-c2ncccc2Cl)c(C)cc2ccnn12 [Compound 1, 6-(3-bromo-1-(3-chloropyridin-2-yl)-1H-pyrazole-5-carboxamido)-N,5-dimethylpyrazolo[1,5-a]pyridine-7-carboxamide] | > 70% | > 70% | > 70%
CCNC(=O)c1c(NC(=O)c2cc(Br)nn2-c2ncccc2Cl)c(C)cc2ccnn12 [Compound 2, 6-(3-bromo-1-(3-chloropyridin-2-yl)-1H-pyrazole-5-carboxamido)-N-ethyl-5-methylpyrazolo[1,5-a]pyridine-7-carboxamide] | > 70% | > 70% | > 70%
Cc1cc2ccnn2c(C(=O)NCC2CC2)c1NC(=O)c1cc(Br)nn1-c1ncccc1Cl [Compound 3, 6-(3-bromo-1-(3-chloropyridin-2-yl)-1H-pyrazole-5-carboxamido)-N-(cyclopropylmethyl)-5-methylpyrazolo[1,5-a]pyridine-7-carboxamide] | > 70% | > 70% | > 70%
Cc1cc2ccnn2c(C(=O)NC(C)C)c1NC(=O)c1cc(Br)nn1-c1ncccc1Cl [Compound 4, 6-(3-bromo-1-(3-chloropyridin-2-yl)-1H-pyrazole-5-carboxamido)-N-isopropyl-5-methylpyrazolo[1,5-a]pyridine-7-carboxamide] | > 70% | > 70% | > 70%
Cc1cc2ccnn2c(C(=O)NC2CC2)c1NC(=O)c1cc(Br)nn1-c1ncccc1Cl [Compound 5, 6-(3-bromo-1-(3-chloropyridin-2-yl)-1H-pyrazole-5-carboxamido)-N-cyclopropyl-5-methylpyrazolo[1,5-a]pyridine-7-carboxamide] | > 70% | > 70% | > 70%
C=CCNC(=O)c1c(NC(=O)c2cc(Br)nn2-c2ncccc2Cl)c(C)cc2ccnn12 [Compound 6, N-allyl-6-(3-bromo-1-(3-chloropyridin-2-yl)-1H-pyrazole-5-carboxamido)-5-methylpyrazolo[1,5-a]pyridine-7-carboxamide] | > 70% | > 70% | > 70%
COCCNC(=O)c1c(NC(=O)c2cc(Br)nn2-c2ncccc2Cl)c(C)cc2ccnn12 [Compound 7, 6-(3-bromo-1-(3-chloropyridin-2-yl)-1H-pyrazole-5-carboxamido)-N-(2-methoxyethyl)-5-methylpyrazolo[1,5-a]pyridine-7-carboxamide] | > 70% | > 70% | > 70%
Cc1cc2ccnn2c(C(=O)NC(C)(C)C)c1NC(=O)c1cc(Br)nn1-c1ncccc1Cl [Compound 8, 6-(3-bromo-1-(3-chloropyridin-2-yl)-1H-pyrazole-5-carboxamido)-N-(tert-butyl)-5-methylpyrazolo[1,5-a]pyridine-7-carboxamide] | > 70% | > 70% | > 70%
CNC(=O)c1c(NC(=O)c2cc(OCC(F)(F)F)nn2-c2ncccc2Cl)c(C)cc2ccnn12 [Compound 9, 6-(1-(3-chloropyridin-2-yl)-3-(2,2,2-trifluoroethoxy)-1H-pyrazole-5-carboxamido)-N,5-dimethylpyrazolo[1,5-a]pyridine-7-carboxamide] | > 70% | > 70% | > 70%
CCNC(=O)c1c(NC(=O)c2cc(OCC(F)(F)F)nn2-c2ncccc2Cl)c(C)cc2ccnn12 [Compound 10, 6-(1-(3-chloropyridin-2-yl)-3-(2,2,2-trifluoroethoxy)-1H-pyrazole-5-carboxamido)-N-ethyl-5-methylpyrazolo[1,5-a]pyridine-7-carboxamide] | > 70% | > 70% | > 70%
Cc1cc2ccnn2c(C(=O)NC(C)C)c1NC(=O)c1cc(OCC(F)(F)F)nn1-c1ncccc1Cl [Compound 12, 6-(1-(3-chloropyridin-2-yl)-3-(2,2,2-trifluoroethoxy)-1H-pyrazole-5-carboxamido)-N-isopropyl-5-methylpyrazolo[1,5-a]pyridine-7-carboxamide] | > 70% | > 70% | > 70%
Cc1cc2ccnn2c(C(=O)NC2CC2)c1NC(=O)c1cc(OCC(F)(F)F)nn1-c1ncccc1Cl [Compound 13, 6-(1-(3-chloropyridin-2-yl)-3-(2,2,2-trifluoroethoxy)-1H-pyrazole-5-carboxamido)-N-cyclopropyl-5-methylpyrazolo[1,5-a]pyridine-7-carboxamide] | > 70% | > 70% | > 70%
Cc1cc2ccnn2c(C(=O)NCC2CC2)c1NC(=O)c1cc(OCC(F)(F)F)nn1-c1ncccc1Cl [Compound 14, 6-(1-(3-chloropyridin-2-yl)-3-(2,2,2-trifluoroethoxy)-1H-pyrazole-5-carboxamido)-N-(cyclopropylmethyl)-5-methylpyrazolo[1,5-a]pyridine-7-carboxamide] | > 70% | > 70% | > 70%
Cc1cc2ccnn2c(C(=O)NCC#N)c1NC(=O)c1cc(OCC(F)(F)F)nn1-c1ncccc1Cl [Compound 15, 6-(1-(3-chloropyridin-2-yl)-3-(2,2,2-trifluoroethoxy)-1H-pyrazole-5-carboxamido)-N-(cyanomethyl)-5-methylpyrazolo[1,5-a]pyridine-7-carboxamide] | > 70% | > 70% | > 70%
CONC(=O)c1c(NC(=O)c2cc(OCC(F)(F)F)nn2-c2ncccc2Cl)c(C)cc2ccnn12 [Compound 16, 6-(1-(3-chloropyridin-2-yl)-3-(2,2,2-trifluoroethoxy)-1H-pyrazole-5-carboxamido)-N-methoxy-5-methylpyrazolo[1,5-a]pyridine-7-carboxamide] | > 70% | > 70% | > 70%
COc1cc(C(=O)Nc2c(Cl)cc3ccnn3c2C(=O)NC(C)(C)C)n(-c2ncccc2Cl)n1 [Compound 136, N-(tert-butyl)-5-chloro-6-(1-(3-chloropyridin-2-yl)-3-methoxy-1H-pyrazole-5-carboxamido)pyrazolo[1,5-a]pyridine-7-carboxamide] | > 70% | > 70% | 
Cc1cc2ccnn2c(C(=O)NC(C)C2CC2)c1NC(=O)c1cc(OC2CSC2)nn1-c1ncccc1Cl (centres unmarked) [Compound 146, 6-(1-(3-chloropyridin-2-yl)-3-(thietan-3-yloxy)-1H-pyrazole-5-carboxamido)-N-(1-cyclopropylethyl)-5-methylpyrazolo[1,5-a]pyridine-7-carboxamide] | > 70% | > 70% | 
Cc1cc2ccnn2c(C(=O)NC2CC2)c1NC(=O)c1cc(Cn2nnc(C(F)(F)F)n2)nn1-c1ncccc1Cl [Compound 168, 6-(1-(3-chloropyridin-2-yl)-3-((5-(trifluoromethyl)-2H-tetrazol-2-yl)methyl)-1H-pyrazole-5-carboxamido)-N-cyclopropyl-5-methylpyrazolo[1,5-a]pyridine-7-carboxamide] | > 70% | > 70% | 
Cc1cc2ccnn2c(C(=O)NC(C)C2CC2)c1NC(=O)c1cc(Cn2nnc(C(F)(F)F)n2)nn1-c1ncccc1Cl (centres unmarked) [Compound 169, 6-(1-(3-chloropyridin-2-yl)-3-((5-(trifluoromethyl)-2H-tetrazol-2-yl)methyl)-1H-pyrazole-5-carboxamido)-N-(1-cyclopropylethyl)-5-methylpyrazolo[1,5-a]pyridine-7-carboxamide] | > 70% | > 70% | 
